Experimental data taken from article PMC3561363, “A Novel Retro-Inverso Peptide Inhibitor Reduces Amyloid Deposition, Oxidation and Inflammation and Stimulates Neurogenesis in the APPswe/PS1ΔE9 Mouse Model of Alzheimer’s Disease” (PLoS ONE, 2013).

What was measured:
Drosophila = test system: Drosophila; parameters: method as in PMID 20559435; settings: cited from earlier work
[1] = test system: soluble Aβ and β-amyloid plaque deposits in mice; parameters: method as in PMID 22323736; settings: oral administration, cited from earlier work
Aβ = test system: Aβ; parameters: method as in 2 sources, ref 16 = [16]; PMID 20230062; doi:10.1021/bi100144m; 16 Taylor M , Moore S , Mayes J , Parkin E , Beeg M , et al ( 2010 ) Development of a proteolytically stable retro-inverso peptide inhibitor of β-amyloid oligomerization as a potential novel treatment ||| ref 5, 52 = [5]; PMID 19605645; doi:10.1523/JNEUROSCI.1071-09.2009; 5 Ma QL , Yang F , Rosario ER , Ubeda OJ , Beech W , et al ( 2009 ) β-amyloid oligomers induce phosphorylation of tau and inactivation of insulin receptor substrate via c-Jun N-terminal kinase signali || [52]; PMID 15590663; doi:10.1074/jbc.M404751200; 52 Yang F , Lim GP , Begum AN , Ubeda OJ , Simmons MR , et al ( 2005 ) Curcumin inhibits formation of amyloid β oligomers and fibrils, binds plaques, and reduces amyloid in vivo . J Biol Chem 280 : 58; settings: cited from earlier work
[2] = parameters: method as in earlier work; settings: no reference given; 53 concern derivatives; cited from earlier work
AD patients = settings: cited from earlier work
Aβ42 = assay: Thioflavin T (ThT) assay for Aβ fibrils; assay type: biochemical; settings: ThT, 25 µM Aβ42, 48 h; figure title
Experimental: This method was the same as that published previously. Briefly, 60 µl samples of solutions containing Aβ42 (25 µM), ThT (15 µM) and between 0 and 125 µM RI-OR2 or RI-OR2–TAT, in 10 mM phosphate buffered saline (PBS), pH 7.4, were incubated in sealed, black, clear-bottomed 384-well plates (Corning). ThT fluorescence was monitored every 10 mins (λex = 442 nm, λem = 483 nm) for 48 h at 30°C in a Biotek Synergy 2 plate reader.

[3] = molecular target: immobilized Aβ(1–42) (Aβ42) monomers, oligomers and fibrils; parameters: method as in PMID 20230062; settings: SPR; cited from earlier work
cultured cells = test system: cultured cells; parameters: method as in PMID 20230062; settings: cited from earlier work
SHSY-5Y cells = assay: Cell penetration of fluorescein-tagged peptides, microscopy; settings: 1 µM
APP/PS1 transgenic mice = assay: Blood brain barrier penetration and brain localisation after i.p. injection; assay type: in vivo, mouse; settings: 100 nmol/kg i.p., 1 h, 17-month old APP/PS1 mice
Experimental: APPswe/PS1ΔE9 mice with a C57Bl/6 background (APP/PS1 mice) were obtained from the Jackson lab (http://research.jax.org/repository/alzheimers.html). […] To look at the effects of RI-OR2-TAT on mouse brain pathology (experiment 2), 8 female 10-months-old APP/PS1 mice were used. The animals were housed in single cages in a temperature controlled holding room (21.5°C±1) with 12∶12 h light and dark cycle. Food and water was available ad libitum.
The animals were then housed in a dark room. After 1 h, the animals were anaesthetised with isoflurane and sodium barbiturate (Dolethal, Bayer, Germany), transcardially perfused and the brains were retrieved and fixed in 4% ice cold paraformaldehyde.
For experiment 1 (BBB penetration), individual sections were incubated with the following primary antibodies at 4°C overnight: anti-Aβ (1∶200 dilution, Invitrogen, 71–5800), or anti-Iba 1 (1∶1000 dilution, Wako 016-20001, Germany). Sections were then stained with goat anti-rabbit Alexa Fluor 555 (1∶150 dilution, A21428 Invitrogen) for 1 h.
All sections were visualized using an Axio Scope 1 fluorescence microscope (Zeiss, Germany). For quantification, two images per section were taken from the cortex area with a 10X objective for 8-oxo guanine and β-amyloid staining, and a 100X objective for Iba1 staining, with a minimum of 5 sections visualized per animal. […]

For `O=C1C=C(N[C@@H](Cc2c[nH]c3ccccc23)C(=O)O)C(=O)c2ccccc21` [NQTrp, 1,4-naphthoquinon-2-yl-L-tryptophan], which “phenotypic changes in Drosophila AD model” value (Drosophila) is on record?
The value was “reversed phenotypic changes in Drosophila”.

Which “clearance of soluble Aβ” value ([1]; apoE-mediated mechanisms) does the source give for `C=C(c1ccc(C(=O)O)cc1)c1cc2c(cc1C)C(C)(C)CCC2(C)C` [bexarotene] here?
The value was “enhance clearance of soluble Aβ”.

And the β-amyloid plaque deposits [1]?
The β-amyloid plaque deposits was “reduce β-amyloid plaque deposits in mice”.

Which “inhibition of Aβ aggregation” value (Aβ) does the source give for `COc1cc(/C=C/C(=O)CC(=O)/C=C/c2ccc(O)c(OC)c2)ccc1O` [curcumin, reference compound] here?
Its value is “effective inhibitor of Aβ aggregation”.

What about the bioavailability [2] of the same compound?
The bioavailability was “poor bioavailability”.

Which “adverse effects in first clinical trial” value (AD patients; human, in vivo) does the source give for “AN1792: pre-aggregated Aβ42, first clinical trial of immunisation” here?
The value was “adverse effects involving detrimental T-cell-mediated brain inflammation”.

What does the source list for Ac-rGffvlkGr-NH2 [RI-OR2]?
inhibition of Aβ42 aggregation (Fig. 1) (Aβ42): inhibit the aggregation of Aβ42; Kd [3]: 9 to 29 µM; inhibition of Aβ oligomer and fibril formation in vitro (Aβ): blocks the formation of Aβ oligomers and fibrils in vitro; effect on Aβ toxicity to cultured cells (cultured cells): inhibits the toxic effects of Aβ on cultured cells

For Solanezumab: Solanezumab (Eli Lilly), which “Phase III trial outcome” value (AD patients; mild-to-moderate AD, ref presented at CTAD 2012) is on record?
The value was “did not achieve key Phase III trial goals of improved cognition and function”.

With fluorescein-rGffvlkGr-NH2 [Flu-RI-OR2] as the compound, how does the “cell uptake (fluorescence localisation)” value (SHSY-5Y cells; 1 h) read?
Its value is “remained in the culture medium”.

For “fluorescein-rGffvlkGrrrrqrrkkrGy-NH2 [Flu-RI-OR2-TAT]”, which “localisation relative to activated microglia” value (APP/PS1 transgenic mice; AlexaFluor 555 anti-Iba 1) is on record?
Its value is “found inside activated microglial cells”.

What about the “localisation relative to amyloid plaques” value (APP/PS1 transgenic mice; cerebral cortex, AlexaFluor 555 anti-Aβ) of the same compound?
Its value is “co-localised with amyloid plaques”.

What about the “cell uptake (fluorescence localisation)” value (SHSY-5Y cells; 10 mins) of the same compound?
The value was “build up of fluorescence inside the cells”.
